In article PMC10734437, “Differential inhibition of intra- and inter-molecular protease cleavages by antiviral compounds” (Journal of Virology, 2023):
Like-named read-outs stand apart in the source and are kept apart here. Residues, ends and D or L forms follow the SMILES beside them. *: point of attachment. Cbz = O=C(OCc1ccccc1)*; CH2F = FC*

Columns and labels:
poliovirus 2A protease [1] = molecular target: T1, poliovirus 2A protease (Poliovirus type 1, UniProt P03300); settings: read-out: IC50, eIF4G (inter-molecular) cleavage by poliovirus 2A
Target sequence in this assay (P03300 882-1030 limits assumed): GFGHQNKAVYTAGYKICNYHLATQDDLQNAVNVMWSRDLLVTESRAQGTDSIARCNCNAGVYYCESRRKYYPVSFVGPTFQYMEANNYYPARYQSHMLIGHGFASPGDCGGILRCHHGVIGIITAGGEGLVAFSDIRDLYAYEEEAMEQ

poliovirus 2A protease [2] = molecular target: T1, poliovirus 2A protease
Target sequence in this assay (P03300 580-1030 limits assumed): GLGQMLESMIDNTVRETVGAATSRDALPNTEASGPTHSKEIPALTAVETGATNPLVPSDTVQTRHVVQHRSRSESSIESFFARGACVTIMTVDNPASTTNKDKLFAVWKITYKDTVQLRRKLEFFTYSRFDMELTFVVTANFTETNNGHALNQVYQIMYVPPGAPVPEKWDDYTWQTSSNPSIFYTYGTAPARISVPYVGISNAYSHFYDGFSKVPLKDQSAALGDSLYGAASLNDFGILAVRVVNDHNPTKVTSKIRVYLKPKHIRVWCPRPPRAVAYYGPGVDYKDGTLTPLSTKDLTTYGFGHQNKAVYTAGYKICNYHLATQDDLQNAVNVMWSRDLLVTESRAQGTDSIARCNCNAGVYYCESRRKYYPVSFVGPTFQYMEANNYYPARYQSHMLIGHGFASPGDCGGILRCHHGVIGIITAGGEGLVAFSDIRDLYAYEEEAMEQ

rhinovirus protease = settings: cited from earlier work
EV-D68 2A protease [3] = molecular target: T2, EV-D68 2A protease (Human enterovirus D68, UniProt A0A097BW12); assay: biochemical; type: biochemical
T2 sequence (A0A097BW12 862-1008): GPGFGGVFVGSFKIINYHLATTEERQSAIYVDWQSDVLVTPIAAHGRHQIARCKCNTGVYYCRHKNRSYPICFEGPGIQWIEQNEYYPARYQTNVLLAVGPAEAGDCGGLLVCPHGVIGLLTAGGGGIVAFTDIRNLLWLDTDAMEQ

EV-D68 2A N84T mutant = molecular target: T3, EV-D68 2A N84T mutant (Human enterovirus D68, UniProt Q68T42, N945T); assay: EV-D68 VP1·2A N84T (telaprevir resistant mutant) self-processing, pulse chase in translation extracts; type: biochemical
T3 sequence (Q68T42 553-1008 N945T): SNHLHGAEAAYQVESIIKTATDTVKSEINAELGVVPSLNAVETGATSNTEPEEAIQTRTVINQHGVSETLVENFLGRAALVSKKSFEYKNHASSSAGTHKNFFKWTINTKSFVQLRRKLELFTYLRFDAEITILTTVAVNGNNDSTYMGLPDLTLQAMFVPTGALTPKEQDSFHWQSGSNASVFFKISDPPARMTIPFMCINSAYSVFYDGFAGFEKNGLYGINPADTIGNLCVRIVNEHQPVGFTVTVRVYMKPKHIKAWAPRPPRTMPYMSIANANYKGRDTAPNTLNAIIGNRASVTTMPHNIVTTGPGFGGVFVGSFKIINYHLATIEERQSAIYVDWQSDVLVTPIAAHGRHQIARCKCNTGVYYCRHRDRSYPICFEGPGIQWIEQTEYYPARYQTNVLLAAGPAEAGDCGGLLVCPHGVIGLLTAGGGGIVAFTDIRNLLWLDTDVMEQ

EV-D68 2A protease [4] = molecular target: T2, EV-D68 2A protease; assay: EV-D68 VP1·2A self-processing (intra-molecular cleavage) in translation extracts; type: biochemical
poliovirus 3C protease = poliovirus 3C protease (Poliovirus type 1, UniProt P03300); assay: biochemical; type: biochemical
EV-D68 3C protease = EV-D68 3C protease (Human enterovirus D68, UniProt Q68T42); type: biochemical
Chain of EV-D68 3C protease (Q68T42 1438-1731 limits assumed): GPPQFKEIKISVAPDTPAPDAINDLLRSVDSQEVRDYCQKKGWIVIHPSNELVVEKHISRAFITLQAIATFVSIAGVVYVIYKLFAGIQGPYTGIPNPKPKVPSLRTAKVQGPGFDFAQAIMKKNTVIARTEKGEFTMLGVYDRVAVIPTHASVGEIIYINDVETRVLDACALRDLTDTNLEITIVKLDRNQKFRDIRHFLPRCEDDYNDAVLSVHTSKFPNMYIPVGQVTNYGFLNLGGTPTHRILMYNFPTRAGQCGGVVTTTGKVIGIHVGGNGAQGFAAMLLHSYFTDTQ

Chain of poliovirus 3C protease (P03300 1457-1748 limits assumed): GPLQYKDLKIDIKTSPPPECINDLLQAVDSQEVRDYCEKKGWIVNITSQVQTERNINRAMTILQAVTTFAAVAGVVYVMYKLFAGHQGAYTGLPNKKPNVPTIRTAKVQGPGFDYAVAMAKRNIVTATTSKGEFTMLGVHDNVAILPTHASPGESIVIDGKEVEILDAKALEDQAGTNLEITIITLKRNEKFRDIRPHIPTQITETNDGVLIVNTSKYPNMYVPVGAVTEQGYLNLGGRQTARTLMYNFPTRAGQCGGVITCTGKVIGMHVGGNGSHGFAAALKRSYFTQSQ

With `CSCCC(NC(=O)C(C)NC(=O)C(NC(=O)OCc1ccccc1)C(C)C)C(=O)CF` (stereo not drawn) [zVAM.fmk] (Cbz-Val-Ala-Met-CH2F; configuration not given here) the IC50 (poliovirus 2A protease [1]) was 18.9 µM, the “inhibition of VP1·2A cis cleavage, pulse chase” value (poliovirus 2A protease [2]) was “significant inhibition” and the IC50 (poliovirus 2A protease [2]; read-out: IC50, Poliovirus VP1·2A (intra-molecular) cleavage) was 1570 µM. For the same molecule, the IC50 (poliovirus 2A protease [2]; read-out: IC50, intra-molecular poliovirus VP1·2A cleavage) was roughly 1600 µM and the “concentration of optimal effects on rhinovirus VP1·2A precursor processing and eIF4G cleavage” value (rhinovirus protease) was 200 µM.

With `CCC[C@H](NC(=O)[C@@H]1[C@H]2CCC[C@H]2CN1C(=O)[C@@H](NC(=O)[C@@H](NC(=O)c1cnccn1)C1CCCCC1)C(C)(C)C)C(=O)C(=O)NC1CC1` [Telaprevir] the “inhibition of inter-molecular processing of eIF4G” value (EV-D68 2A protease [3]) was “fully inhibited”, the IC50 (EV-D68 2A protease [3]; IC50, eIF4G (inter-molecular) cleavage by EV-D68 2A) was 0.19 µM and the IC50 (EV-D68 2A protease [3]; IC50, inter-molecular cleavage of eIF4G by EV-D68 2A) was roughly 0.2 µM. The “N84T mutant self-processing, pulse chase in the presence of telaprevir” value (EV-D68 2A N84T mutant) was “not inhibited”, the “rate of VP1·2A self-processing, pulse chase, WT construct” value (EV-D68 2A protease [4]; 1 µM telaprevir) was “significantly decreased” and the “inhibition of intra-molecular processing of VP1·2A” value (EV-D68 2A protease [4]; 1-µM telaprevir, maximum concentration testable) was 20%. For the same molecule, the “fold higher IC50 for intra-molecular VP1·2A cleavage than for inter-molecular eIF4G cleavage” value (EV-D68 2A protease [4]; EV-D68 2A) was “more than 20 fold” and the IC50 (EV-D68 2A protease [4]; approximate, translation extracts, drug added at initiation of translation) was 3.96 µM.

With `CCOC(=O)/C=C/[C@H](C[C@@H]1CCNC1=O)NC(=O)[C@@H](CC(=O)[C@@H](NC(=O)c1cc(C)on1)C(C)C)Cc1ccc(F)cc1` [Rupintrivir] the “inhibition of poliovirus 3ABC processing, concentration curve” value (poliovirus 3C protease) was “near-complete inhibition”, the “inhibition of self-processing, poliovirus inter-molecular 3ABC processing, pulse chase” value (poliovirus 3C protease) was roughly 100% and the IC50 (poliovirus 3C protease; IC50, Poliovirus 3ABC (inter-molecular) cleavage) was 0.76 µM. The IC50 (poliovirus 3C protease; IC50, inter-molecular cleavage of poliovirus 3ABC) was roughly 0.76 µM, the “inhibition of EV-D68 3ABC processing, concentration curve” value (EV-D68 3C protease) was “near-complete inhibition” and the “inhibition of self-processing, EV-D68 intra-molecular 3ABC processing, pulse chase” value (EV-D68 3C protease) was roughly 100%.
